Among the data in the RepoRT retention time repository (doi:10.1038/s41586-021-03707-9) are LC retention time values, retold here.

Data set [1] in a line: Waters ACQUITY UPLC BEH C18, 100 × 2.1 mm, 1.7 µm, 40 °C, 0.28 mL/min, estimated dead time 0.63 min; A: water + 6.5 mM ammonium hydroxide; B: methanol + 6.5 mM ammonium hydroxide; gradient (min/%B) 0/0.5 4/70 4.5/98 5.4/98. The settings on record: stereoisomer not certain.
Data set [2] is described as follows: RP, Waters ACQUITY UPLC HSS C18, 100 × 2.1 mm, 1.7 µm, 40 °C, 0.35 mL/min, estimated dead time 0.63 min; A: water + 0.1% formic acid; B: methanol + 0.1% formic acid; gradient (min/%B) 0/0.5 4/70 4.5/98 5.4/98. The settings on record: stereoisomer not certain.

Take `CN=C(NC#N)NCCSCc1nc[nH]c1C`: the LC retention time in data set [1] is 3.63 min. The same measure, in the same setting: the value for `NC(=O)c1ncn(C2OC(CO)C(O)C2O)n1` (stereo not drawn) was 0.858 min.

Take `NC(=O)CCC(N)C(=O)O` (stereo not drawn): the LC retention time in data set [1] was 0.764 min.

With `OCc1cccc(O)c1`, in data set [1], the LC retention time was 2.93 min. The same measure, in the same setting: the value for `O=C(O)CCc1cccc(O)c1` was 2.24 min. The same measure, in the same setting: the value for `C[N+](C)(C)CC(O)CC(=O)[O-]` (stereo not drawn) was 1.23 min. As for `NC(N)=NCCCC(N)C(=O)O` (stereo not drawn), the LC retention time in data set [1] is 0.845 min. Still for that read-out and setting: the value for `O=C(CO)C(O)C(O)C(O)CO` (stereo not drawn) was 0.816 min; that for `CC(C)(CO)C(O)C(=O)NCCC(=O)O` (stereo not drawn) was 1.7 min. On the same count and under the same terms, the value for `COc1ccc2[nH]cc(CCN)c2c1` was 3.64 min; that for `NC(CCSSCCC(N)C(=O)O)C(=O)O` (stereo not drawn) was 0.929 min; that for `Cc1ccc(OC2OC(C(=O)O)C(O)C(O)C2O)cc1` (stereo not drawn) was 2.77 min. On to `COc1cc(C=CC(=O)O)ccc1O`, for which, in data set [2], the LC retention time was 3.87 min. Still for that read-out and setting: the value for `CNC(CCC(=O)O)C(=O)O` (stereo not drawn) was 0.817 min. The same measure, in the same setting: the value for `C=Cc1ccc(O)cc1` was 4.46 min; that for `CC(=O)NC(Cc1ccc(O)cc1)C(=O)O` (stereo not drawn) was 2.89 min; that for `NCCc1ccc(O)c(O)c1` was 1.35 min. Same read-out and setting: the figure for `O=C(O)C#Cc1ccccc1` is 4.39 min; for `Cc1ncc(C[n+]2csc(CCOP(=O)(O)O)c2C)c(N)n1` it is 0.762 min; for `O=Cc1ccc(O)c(O)c1` it is 2.91 min. Consider `CNCCC(Oc1ccccc1C)c1ccccc1` (stereo not drawn), for which the LC retention time in data set [2] was 4.72 min. Same read-out and setting: the value for `O=C(O)c1ccccc1O` was 2.19 min; that for `O=C(O)C(O)C(O)C(O)C(=O)CO` (stereo not drawn) was 0.808 min; that for `O=C(O)CCCCC1SCC2NC(=O)NC21` (stereo not drawn) was 3.42 min. The same measure, in the same setting: the value for `CCc1occc(=O)c1O` was 3.63 min. On the same count and under the same terms, the value for `O=P(O)(O)OC(CO)CO` was 0.815 min.

Consider `COc1ccc(C2Sc3ccccc3N(CCN(C)C)C(=O)C2OC(C)=O)cc1` (stereo not drawn), for which, in data set [2], the LC retention time is 4.53 min.

For the compound `O=C1CCNC(=O)N1`, the LC retention time in data set [2] is 1.16 min.

`NC1CCSC1=O` (stereo not drawn): the LC retention time in data set [2] was 0.873 min.

For the compound `COc1ccccc1C=CC=O`, the LC retention time in data set [2] was 5.02 min.

Take `CN(C)CCc1ccccc1`: the LC retention time in data set [2] is 2.61 min. As for `Nc1ccc(O)c(C(=O)O)c1`, the LC retention time in data set [2] was 1.54 min. The same measure, in the same setting: the figure for `O=C(O)c1c[nH]c(=O)[nH]c1=O` is 1.51 min.

Take `NC(Cc1ccc(O)cc1)C(=O)O` (stereo not drawn): in data set [2], the LC retention time was 1.66 min. The same measure, in the same setting: the figure for `CC1NCCc2cc(O)c(O)cc21` (stereo not drawn) is 1.61 min. The same measure, in the same setting: the figure for `NC12CC3CC(CC(C3)C1)C2` is 3.49 min; for `CSc1ccc2c(c1)N(CCC1CCCCN1C)c1ccccc1S2` (stereo not drawn) it is 5.19 min. Take `COc1ccc2nc(S(=O)Cc3ncc(C)c(OC)c3C)[nH]c2c1` (stereo not drawn): the LC retention time in data set [2] was 4.42 min. On the same count and under the same terms, the figure for `NC(=O)c1ncn(C2OC(COP(=O)(O)O)C(O)C2O)c1N` (stereo not drawn) is 1.11 min. Still for that read-out and setting: the figure for `CCOC(=O)CCC(=O)OCC` is 4.61 min; for `Nc1ccn(C2OC(CO)C(OP(=O)(O)O)C2O)c(=O)n1` (stereo not drawn) it is 0.912 min. Same read-out and setting: the value for `CCC1CCC(=O)O1` (stereo not drawn) was 3.33 min. `CC12CCC3c4ccc(O)cc4CCC3C1CC(O)C2O` (stereo not drawn): the LC retention time in data set [2] was 4.61 min. The same measure, in the same setting: the figure for `CN(C)CCCN1c2ccccc2CCc2ccccc21` is 4.77 min; for `Cn1cnc2c1c(=O)[nH]c(=O)n2C` it is 2.5 min.

With `NC(CCC(=O)NC(CS)C(=O)NCC(=O)O)C(=O)O` (stereo not drawn), the LC retention time in data set [2] was 3.37 min. In the case of `CN(C)C(=N)N=C(N)N`, the LC retention time in data set [2] was 0.844 min. On to `O=C(O)CC(O)(CC(=O)O)C(=O)O`, for which, in data set [2], the LC retention time was 1.43 min. On the same count and under the same terms, the figure for `CC(C)CC(O)C(=O)O` (stereo not drawn) is 3.94 min; for `CNCC(O)c1ccc(O)c(O)c1` (stereo not drawn) it is 0.911 min.

Regarding `C[N+](C)(C)[O-]`, in data set [2], the LC retention time was 0.766 min. Turning to `Nc1ncnc2c1ncn2C1OC(CSCCC(N)C(=O)O)C(O)C1O` (stereo not drawn), in data set [2], the LC retention time is 1.71 min. Consider `CCCC(=O)NCC(=O)O`, for which, in data set [2], the LC retention time is 2.36 min. The same measure, in the same setting: the value for `NC(=O)c1ccc[n+](C2OC(COP(=O)([O-])O)C(O)C2O)c1` (stereo not drawn) was 0.907 min. The same measure, in the same setting: the value for `Cn1ccc(=O)n(C)c1=O` was 2.38 min.

With `O=C(O)CCC(=O)O`, the LC retention time in data set [2] is 1.73 min. The same measure, in the same setting: the figure for `O=C(O)CCO` is 0.782 min; for `CC(C)NCC(O)COc1cccc2ccccc12` (stereo not drawn) it is 4.33 min.
